# Test results as given in ChEMBL document CHEMBL1201862, “PubChem BioAssay data set” (2004).
# Active and inactive are the calls of the source.
# Experiments:
# [1] = target: Heat shock 70 kDa protein 1A (Homo sapiens, UniProt P0DMV8); assay: inhibition of Hsp70 binding activity – biochemical, fluorescence polarization, SAR follow-up (AID 1072)
# [2] = target: T1, Dual specificity protein phosphatase 6 (Rattus norvegicus, UniProt Q64346)
# [3] = target: T2, Tyrosine-protein phosphatase non-receptor type 7 (Homo sapiens, UniProt P35236); type: functional
# T2 sequence (P35236 whole entry): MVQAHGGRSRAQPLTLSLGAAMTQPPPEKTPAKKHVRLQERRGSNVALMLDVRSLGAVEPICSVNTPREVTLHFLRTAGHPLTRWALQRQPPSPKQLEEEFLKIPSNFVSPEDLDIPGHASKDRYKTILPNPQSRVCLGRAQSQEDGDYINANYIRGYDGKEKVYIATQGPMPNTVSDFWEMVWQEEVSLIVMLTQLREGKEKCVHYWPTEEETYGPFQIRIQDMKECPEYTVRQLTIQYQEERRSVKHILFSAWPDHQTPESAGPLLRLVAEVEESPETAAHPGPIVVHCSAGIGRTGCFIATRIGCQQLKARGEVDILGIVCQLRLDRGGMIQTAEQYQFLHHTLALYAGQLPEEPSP
# [4] = target: Dual specificity protein phosphatase 3 (Homo sapiens, UniProt P51452); assay: inhibition constants for human DUSP3 – biochemical, colorimetric, SAR follow-up (AID 2004)
# Dual specificity protein phosphatase 3, sequence (P51452 whole entry): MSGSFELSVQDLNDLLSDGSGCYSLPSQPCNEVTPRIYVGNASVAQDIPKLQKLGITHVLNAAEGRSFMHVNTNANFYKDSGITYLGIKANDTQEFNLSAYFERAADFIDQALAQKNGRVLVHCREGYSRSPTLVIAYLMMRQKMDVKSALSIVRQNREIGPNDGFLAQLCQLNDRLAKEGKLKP
# [5] = target: T3, Cysteine protease ATG4B (Homo sapiens, UniProt Q9Y4P1); type: functional;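 note: Fluorescence-based dose-response confirmation assay measuring inhibition of ATG4B activity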
# T3 sequence (Q9Y4P1 whole entry): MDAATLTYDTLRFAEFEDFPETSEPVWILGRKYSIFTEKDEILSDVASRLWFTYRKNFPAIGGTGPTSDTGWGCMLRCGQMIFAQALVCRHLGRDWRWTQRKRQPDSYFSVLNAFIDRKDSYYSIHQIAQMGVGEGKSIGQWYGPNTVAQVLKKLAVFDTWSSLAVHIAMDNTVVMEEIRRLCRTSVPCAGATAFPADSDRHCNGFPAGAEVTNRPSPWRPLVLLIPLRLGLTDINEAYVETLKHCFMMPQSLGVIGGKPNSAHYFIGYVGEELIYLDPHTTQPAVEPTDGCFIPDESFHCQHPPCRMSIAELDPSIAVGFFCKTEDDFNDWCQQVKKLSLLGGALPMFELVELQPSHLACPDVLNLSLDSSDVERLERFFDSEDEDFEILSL
# [6] = target: Phospholipase A2 (Homo sapiens, UniProt P04054); type: functional;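 note: confirmatory dose-response counterscreen on phospholipase A2, testing hits that came from an ultra-high-throughput screen for ATG4B inhibitors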
# Phospholipase A2, sequence (P04054 whole entry): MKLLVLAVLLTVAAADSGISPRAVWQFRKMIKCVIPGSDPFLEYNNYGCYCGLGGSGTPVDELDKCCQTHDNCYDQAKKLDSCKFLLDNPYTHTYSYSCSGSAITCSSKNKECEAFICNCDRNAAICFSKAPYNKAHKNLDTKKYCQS
# [7] = target: T4, Bcl-2-like protein 10 (Homo sapiens, UniProt Q9HD36); assay: Concentration-response of Bcl-B inhibitors by biochemical FP with TR3 (AID 1243); type: functional
# T4 sequence (Q9HD36 whole entry): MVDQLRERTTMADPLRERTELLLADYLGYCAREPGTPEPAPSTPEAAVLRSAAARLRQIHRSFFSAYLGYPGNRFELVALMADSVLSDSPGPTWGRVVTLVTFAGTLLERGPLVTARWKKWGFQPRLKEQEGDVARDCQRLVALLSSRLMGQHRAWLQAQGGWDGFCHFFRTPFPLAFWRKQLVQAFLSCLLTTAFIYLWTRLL
# [8] = target: T1, Dual specificity protein phosphatase 6; type: functional
# [9] = target: Heat shock cognate 71 kDa protein (Homo sapiens, UniProt P11142); assay: In Vitro Hsc70 Dose Response Fluorescence Polarization Assay. [Related pubchem assays: 1072 ]
# Heat shock cognate 71 kDa protein, sequence (P11142 whole entry): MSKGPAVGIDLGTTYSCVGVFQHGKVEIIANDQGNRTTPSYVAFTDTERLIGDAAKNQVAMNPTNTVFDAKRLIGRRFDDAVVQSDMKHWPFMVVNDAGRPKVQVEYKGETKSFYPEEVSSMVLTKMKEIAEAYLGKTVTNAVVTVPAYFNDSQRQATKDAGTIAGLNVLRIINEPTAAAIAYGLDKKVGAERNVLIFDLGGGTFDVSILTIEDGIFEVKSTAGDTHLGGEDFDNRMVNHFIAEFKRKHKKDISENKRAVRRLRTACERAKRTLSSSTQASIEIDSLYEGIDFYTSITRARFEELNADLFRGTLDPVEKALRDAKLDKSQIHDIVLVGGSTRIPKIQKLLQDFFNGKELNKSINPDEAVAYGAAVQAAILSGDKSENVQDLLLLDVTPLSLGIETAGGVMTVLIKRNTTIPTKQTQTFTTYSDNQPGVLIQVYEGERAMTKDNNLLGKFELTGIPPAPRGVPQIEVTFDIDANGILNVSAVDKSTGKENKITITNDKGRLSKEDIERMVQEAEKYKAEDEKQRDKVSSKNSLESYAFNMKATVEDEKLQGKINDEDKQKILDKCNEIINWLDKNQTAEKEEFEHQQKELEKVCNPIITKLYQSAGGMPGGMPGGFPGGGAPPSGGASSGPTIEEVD
# [10] = target: Glyceraldehyde-3-phosphate dehydrogenase (Homo sapiens, UniProt P04406)
# Glyceraldehyde-3-phosphate dehydrogenase, sequence (P04406 whole entry): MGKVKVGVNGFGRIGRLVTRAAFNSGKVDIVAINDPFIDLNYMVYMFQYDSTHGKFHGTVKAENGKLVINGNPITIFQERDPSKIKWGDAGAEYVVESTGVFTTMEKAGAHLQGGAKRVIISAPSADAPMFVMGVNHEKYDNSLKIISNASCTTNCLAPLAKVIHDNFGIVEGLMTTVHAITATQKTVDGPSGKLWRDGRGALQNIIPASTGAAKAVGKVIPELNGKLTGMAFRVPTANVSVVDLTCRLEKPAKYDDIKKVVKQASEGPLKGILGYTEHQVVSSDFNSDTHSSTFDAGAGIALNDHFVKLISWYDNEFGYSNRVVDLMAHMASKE
# [11] = target: T5, Endoribonuclease toxin MazF (Escherichia coli K-12, UniProt P0AE70); assay: activation of MazEF endoribonuclease cleavage – biochemical, fluorescence, single-stranded RNA substrate, uHTS hits, dose response (AID 588481); type: functional
# T5 sequence (P0AE70 whole entry): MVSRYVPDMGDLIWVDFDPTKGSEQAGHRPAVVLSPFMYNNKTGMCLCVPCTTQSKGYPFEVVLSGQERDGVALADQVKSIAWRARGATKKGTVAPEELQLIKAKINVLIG
# [12] = target: Keap1/Nrf2 (Homo sapiens, UniProt Q14145); assay: disruptors of Keap1 binding to Nrf2 peptide – biochemical, fluorescence polarization, cherry-picked samples, dose response (AID 588683)
# [13] = target: T5, Endoribonuclease toxin MazF; assay: substrate-only fluorescence increase artefacts – biochemical, single-stranded RNase substrate, counter-screen for MazEF activator project, dose response (AID 588502); type: functional
# [14] = target: T6, Eukaryotic translation initiation factor 4H (Homo sapiens, UniProt Q15056); assay: eIF4H binding inhibition – biochemical, uHTS, fluorescence polarization, translation initiation inhibitor project, primary screen (AID 2012)
# [15] = target: T6, Eukaryotic translation initiation factor 4H; assay: inhibitors of translation initiation factor eIF4H – SAR follow-up (AID 435011); type: functional
# [16] = target: T7, Apoptotic protease-activating factor 1 (Homo sapiens, UniProt O14727); assay: activation of Apaf-1 mediated apoptosis – fluorescent, uHTS hits, dose response (AID 588554); type: functional
# T7 sequence (O14727 whole entry): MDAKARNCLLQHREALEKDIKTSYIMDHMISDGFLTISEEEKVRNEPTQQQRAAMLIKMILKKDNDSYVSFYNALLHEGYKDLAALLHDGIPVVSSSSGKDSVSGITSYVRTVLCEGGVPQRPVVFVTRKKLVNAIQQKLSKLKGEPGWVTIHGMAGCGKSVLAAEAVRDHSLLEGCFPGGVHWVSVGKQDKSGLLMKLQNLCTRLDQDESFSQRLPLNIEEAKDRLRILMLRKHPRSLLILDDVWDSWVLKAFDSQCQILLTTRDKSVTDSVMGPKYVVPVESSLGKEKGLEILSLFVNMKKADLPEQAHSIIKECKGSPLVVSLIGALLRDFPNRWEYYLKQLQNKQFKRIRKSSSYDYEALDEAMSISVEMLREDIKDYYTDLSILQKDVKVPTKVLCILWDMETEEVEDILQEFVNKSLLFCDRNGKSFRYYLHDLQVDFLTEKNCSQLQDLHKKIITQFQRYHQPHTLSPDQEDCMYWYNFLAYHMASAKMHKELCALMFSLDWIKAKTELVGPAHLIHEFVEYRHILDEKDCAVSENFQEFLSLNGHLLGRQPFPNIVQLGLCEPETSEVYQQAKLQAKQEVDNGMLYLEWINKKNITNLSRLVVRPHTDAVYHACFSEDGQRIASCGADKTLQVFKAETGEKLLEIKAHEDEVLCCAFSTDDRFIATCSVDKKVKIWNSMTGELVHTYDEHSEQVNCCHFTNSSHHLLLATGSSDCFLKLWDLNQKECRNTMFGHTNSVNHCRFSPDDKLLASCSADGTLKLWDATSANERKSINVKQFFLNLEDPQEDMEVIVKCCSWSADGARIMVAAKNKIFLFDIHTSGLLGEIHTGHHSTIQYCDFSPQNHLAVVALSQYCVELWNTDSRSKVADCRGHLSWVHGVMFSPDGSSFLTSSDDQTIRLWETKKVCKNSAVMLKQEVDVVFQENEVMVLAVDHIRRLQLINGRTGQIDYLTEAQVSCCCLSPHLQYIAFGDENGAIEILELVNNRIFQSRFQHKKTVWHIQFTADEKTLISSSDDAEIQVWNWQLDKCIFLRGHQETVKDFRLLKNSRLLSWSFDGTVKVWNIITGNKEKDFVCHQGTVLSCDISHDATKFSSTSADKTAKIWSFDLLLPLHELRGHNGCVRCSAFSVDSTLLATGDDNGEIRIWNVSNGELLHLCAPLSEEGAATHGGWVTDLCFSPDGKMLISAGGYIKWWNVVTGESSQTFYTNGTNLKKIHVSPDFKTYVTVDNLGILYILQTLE
# [17] = target: T8, Small ubiquitin-related modifier 1 (Homo sapiens, UniProt P63165); assay: SUMO1 protein-protein binding blockers, potency – biochemical, FRET, dose response (AID 624383); type: functional; settings: read-out: IC50_Mean
# T8 sequence (P63165 whole entry): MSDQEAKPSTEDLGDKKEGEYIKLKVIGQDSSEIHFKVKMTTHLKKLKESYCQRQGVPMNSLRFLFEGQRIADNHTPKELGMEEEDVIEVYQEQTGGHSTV
# [18] = target: T8, Small ubiquitin-related modifier 1; assay: SUMO1 protein interaction blockers, potency – biochemical, fluorescence polarization, uHTS hits, dose response (AID 624382); type: functional; settings: read-out: IC50_Mean
# [19] = target: T9, Polyadenylate-binding protein 1 (Homo sapiens, UniProt P11940); assay: PABP inhibition in translation initiation, SAR follow-up (AID 435018); type: functional
# T9 sequence (P11940 whole entry): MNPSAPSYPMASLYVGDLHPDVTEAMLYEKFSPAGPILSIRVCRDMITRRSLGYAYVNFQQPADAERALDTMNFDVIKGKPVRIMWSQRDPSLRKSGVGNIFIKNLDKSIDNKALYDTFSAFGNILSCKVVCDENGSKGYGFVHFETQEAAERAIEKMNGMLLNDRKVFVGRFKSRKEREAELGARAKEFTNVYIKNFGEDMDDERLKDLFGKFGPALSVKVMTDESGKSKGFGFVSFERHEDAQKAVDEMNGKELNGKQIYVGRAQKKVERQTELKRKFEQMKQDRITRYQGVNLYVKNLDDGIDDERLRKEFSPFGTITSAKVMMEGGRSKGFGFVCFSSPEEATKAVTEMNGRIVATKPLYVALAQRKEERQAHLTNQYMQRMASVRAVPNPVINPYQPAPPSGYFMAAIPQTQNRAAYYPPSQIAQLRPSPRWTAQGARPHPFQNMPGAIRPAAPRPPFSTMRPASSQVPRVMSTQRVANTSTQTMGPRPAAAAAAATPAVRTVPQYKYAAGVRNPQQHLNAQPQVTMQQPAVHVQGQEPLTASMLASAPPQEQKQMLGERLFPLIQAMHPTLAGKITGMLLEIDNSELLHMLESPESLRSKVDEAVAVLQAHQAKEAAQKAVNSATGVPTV
# [20] = target: T9, Polyadenylate-binding protein 1; assay: blockers of PABP interaction with poly(A) – biochemical, fluorescence polarization, […] (AID 2014)
# [21] = target: UDP-galactopyranose mutase (Mycobacterium tuberculosis, UniProt P9WIQ1); assay: Inhibitors of Mycobacterium tuberculosis UDP-galactopyranose mutase (UGM) enzyme Measured in Biochemical System Using Plate Reader - 2105-02_Inhibitor_Dose_CherryPick_Activity. [Related pubchem assays (depositor defined):AID504439]
# UDP-galactopyranose mutase, sequence (P9WIQ1 whole entry): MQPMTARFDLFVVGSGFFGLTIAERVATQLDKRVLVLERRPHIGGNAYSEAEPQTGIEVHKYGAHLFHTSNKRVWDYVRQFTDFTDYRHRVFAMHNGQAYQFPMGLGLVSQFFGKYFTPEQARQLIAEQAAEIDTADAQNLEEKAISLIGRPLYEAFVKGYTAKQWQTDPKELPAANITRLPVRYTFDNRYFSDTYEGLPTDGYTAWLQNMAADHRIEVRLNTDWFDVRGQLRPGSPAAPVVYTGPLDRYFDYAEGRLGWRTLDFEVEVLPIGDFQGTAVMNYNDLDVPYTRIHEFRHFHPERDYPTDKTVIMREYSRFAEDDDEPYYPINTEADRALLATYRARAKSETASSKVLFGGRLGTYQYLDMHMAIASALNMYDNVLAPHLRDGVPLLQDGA
# [22] = tested on: Candida albicans; assay: antifungal activity against resistant Candida strain – CaCi-8, fluconazole, Alamar Blue, dry powder, dose response (AID 488807); type: functional, organism-based
# [23] = alpha-synuclein stem-loop luciferase translation blockers – H4 neuroglioma cells, luminescence, confirmation (AID 1988); type: functional, cell-based
# [24] = Luminescence Cell-Based Dose Response HTS to Identify Inhibitors of 5'UTR Stem-Loop Driven Prion Protein mRNA Translation in H4 Neuroglioblastoma Cells. [Related pubchem assays: 1827 (Project Summary), 1813 (Primary HTS)]; type: functional
# [25] = luciferase reporter signal suppression in cells – H4 neuroglioma cells, luminescence, dose response (AID 1990); type: functional, cell-based
# [26] = A Cell Based Secondary Assay To Explore Cytotoxicity of Compounds that Sensitize Mycobacterium Tuberculosis to Beta-Lactam Antibiotics.; type: functional
# [27] = viability loss of HMLE_sh_eGFP cells – cell-based, luminescence, counter-screen for HMLE_sh_ECad selective toxicity project, dose response (AID 463074); type: functional, Homo sapiens;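 note: HMLE human mammary epithelial cells expressing control shRNA against eGFP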
# [28] = Luminescence Cell-Based Dose Retest to Confirm Inhibitors of Cancer Stem Cells. [Related pubchem assays (depositor defined):AID2717, AID2721]; type: functional; settings: Homo sapiens
# [29] = target: T10, Estrogen receptor (Homo sapiens, UniProt P03372);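 note: potency for inhibiting coactivator peptide recruitment to the receptor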
# T10 sequence (P03372 whole entry): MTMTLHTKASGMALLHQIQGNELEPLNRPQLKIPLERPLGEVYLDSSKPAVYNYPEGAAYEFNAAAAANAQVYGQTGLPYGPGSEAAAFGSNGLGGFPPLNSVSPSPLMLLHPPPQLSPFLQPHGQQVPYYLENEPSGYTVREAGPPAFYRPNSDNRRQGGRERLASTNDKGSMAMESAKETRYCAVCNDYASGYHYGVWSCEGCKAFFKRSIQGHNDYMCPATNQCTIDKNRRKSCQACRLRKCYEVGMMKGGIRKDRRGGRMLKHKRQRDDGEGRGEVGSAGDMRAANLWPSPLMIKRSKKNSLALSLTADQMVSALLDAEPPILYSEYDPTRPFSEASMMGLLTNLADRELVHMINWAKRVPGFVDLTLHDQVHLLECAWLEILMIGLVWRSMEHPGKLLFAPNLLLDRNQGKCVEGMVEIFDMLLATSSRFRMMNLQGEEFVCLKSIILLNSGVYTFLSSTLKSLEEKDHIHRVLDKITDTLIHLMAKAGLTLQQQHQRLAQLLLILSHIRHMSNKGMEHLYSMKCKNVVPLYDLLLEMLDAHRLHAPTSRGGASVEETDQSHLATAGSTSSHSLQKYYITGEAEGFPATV
# T1 sequence (Q64346 whole entry): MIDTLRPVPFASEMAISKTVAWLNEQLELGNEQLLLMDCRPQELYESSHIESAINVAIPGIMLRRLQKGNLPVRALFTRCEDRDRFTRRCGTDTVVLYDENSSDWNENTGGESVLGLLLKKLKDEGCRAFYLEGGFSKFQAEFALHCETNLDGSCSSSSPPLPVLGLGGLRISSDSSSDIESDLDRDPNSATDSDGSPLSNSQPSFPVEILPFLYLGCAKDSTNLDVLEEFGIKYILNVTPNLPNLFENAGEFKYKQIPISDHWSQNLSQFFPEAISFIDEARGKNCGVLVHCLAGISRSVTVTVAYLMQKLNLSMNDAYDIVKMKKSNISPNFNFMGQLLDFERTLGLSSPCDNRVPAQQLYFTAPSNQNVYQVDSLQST
# Heat shock 70 kDa protein 1A, sequence (P0DMV8 whole entry): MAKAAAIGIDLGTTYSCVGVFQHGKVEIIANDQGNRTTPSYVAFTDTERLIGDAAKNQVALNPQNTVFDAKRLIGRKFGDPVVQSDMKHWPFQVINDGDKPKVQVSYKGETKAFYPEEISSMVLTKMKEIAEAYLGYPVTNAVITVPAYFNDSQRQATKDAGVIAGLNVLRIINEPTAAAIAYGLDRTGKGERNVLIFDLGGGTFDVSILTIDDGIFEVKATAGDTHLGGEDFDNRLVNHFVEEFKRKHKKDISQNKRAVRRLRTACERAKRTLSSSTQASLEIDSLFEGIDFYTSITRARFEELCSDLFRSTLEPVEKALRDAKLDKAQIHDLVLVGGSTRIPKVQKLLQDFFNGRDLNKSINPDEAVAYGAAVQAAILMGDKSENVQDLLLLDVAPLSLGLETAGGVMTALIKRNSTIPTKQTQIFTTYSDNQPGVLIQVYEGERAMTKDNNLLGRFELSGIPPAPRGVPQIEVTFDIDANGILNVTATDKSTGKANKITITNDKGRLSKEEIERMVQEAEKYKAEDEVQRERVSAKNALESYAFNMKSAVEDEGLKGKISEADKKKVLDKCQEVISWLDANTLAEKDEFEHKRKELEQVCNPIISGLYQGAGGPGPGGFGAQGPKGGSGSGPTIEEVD
smiles,measurement,setting,value
O=C(O)C1Nc2c(Cl)cc(Cl)cc2C2C=CCC12 (centres undefined),IC50,[1],> 100 µM (not active)
same,IC50,[2],63.5 µM (active)
same,IC50,[3],12.9 µM (active)
same,Ki,[4],65.6 µM (inactive)
same,IC50,[5],2.58 µM (active)
same,IC50,[6],9.08 µM (active)
same,EC50,[7],1.03 µM (active)
same,IC50,[8],53 µM (active)
same,IC50,[9],> 100 µM (not active)
same,IC50,[10],> 100 µM (not active)
O=C(C1=C(O)C(=O)N(c2nccs2)C1c1ccccc1)c1cc2ccccc2o1 (centres undefined),EC50,[11],> 99 µM (inactive)
same,AC50,[12],1.15 µM (active)
same,EC50,[13],> 99 µM (inactive)
COc1cc([N+](=O)[O-])ccc1NC(=O)COC(=O)c1ccc(NC(N)=O)cc1,IC50,[14],14.6 µM (active)
same,IC50,[15],4.62 µM (active)
same,EC50,[16],10.4 µM (active)
same,IC50,[17],10.2 µM (active)
same,IC50,[18],> 66.6 µM (inactive)
same,IC50,[19],76.2 µM (active)
same,IC50,[20],> 100 µM (inactive)
O=C(NCCc1ccc(F)cc1)c1cccc2c1C(=O)c1ccc(N3CCC(Cc4ccccc4)CC3)cc1S2(=O)=O,AC50,[21],47.8 µM (active)
Oc1c2nc3ccccc3c-2nc2n1CCS2,AC50,[22],17.1 µM (active)
Cc1nc2ccccc2c(=O)n1/N=C/c1c(O)ccc2oc3c(c12)CCCC3,EC50,[23],9.98 µM (active)
same,EC50,[24],11.7 µM (active)
same,EC50,[25],11.1 µM (active)
same,CC50,[26],4.26 µM (active)
same,AC50,[27],32.8 µM (active)
same,AC50,[28],30 µM (active)
same,IC50,[29],29.2 µM (active)
